Our source for the GI50 and TGI values is PubChem BioAssay (NCI).

Where “and” joins values, the source holds several entries; their conditions need not be identical. Equal values may be shown once.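 Step 1: Grow cells in 96-well plates. Step 2: Expose to compound for 48 hours at 5 concentrations. Step 3: Interpolate endpoints linearly; if unreached, use highest concentration. GI50 is the concentration that inhibits growth by half. At the TGI there is no net growth.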

Among the test systems are A498 renal; IGROV1 ovarian; OVCAR-5 ovarian; OVCAR-8 ovarian; SF-539 CNS; SK-OV-3 ovarian; SN12C renal; U251 CNS; NCI-H226 lung.
Common to all, as to test: DTP human tumour cell line panel, 48 h

`N.N.N.N.[Cl-].[Co+3].[N-]=[N+]=[N-].[N-]=[N+]=[N-]`: the GI50 in the assay with A498 renal was above 100 µM; with IGROV1 ovarian, above 100 µM; in the assay with OVCAR-5 ovarian, above 100 µM; in the assay on OVCAR-8 ovarian it was above 100 µM; in the assay with SF-539 CNS, 48.8 µM; in the assay on SK-OV-3 ovarian it was above 100 µM. Besides, the GI50 with SN12C renal and in the assay with U251 CNS was above 100 µM each time. Besides, the concentration for total growth inhibition (TGI) in the assay with A498 renal, with IGROV1 ovarian, with OVCAR-5 ovarian, in the assay on OVCAR-8 ovarian, with SF-539 CNS and with SK-OV-3 ovarian was above 100 µM each time. Moreover, the TGI in the assay on SN12C renal and in the assay on U251 CNS was above 100 µM throughout.

On to `COC(=O)OCC1OC(N2C(=O)NC(=O)C(Br)C2N=[N+]=[N-])CC1OC(=O)OC` (stereo not drawn), for which the TGI with IGROV1 ovarian, with NCI-H226 lung, with OVCAR-5 ovarian, with OVCAR-8 ovarian, in the assay on SF-539 CNS and in the assay on SK-OV-3 ovarian was above 100 µM in each case. Moreover, the concentration for total growth inhibition (TGI) in the assay on SN12C renal and in the assay on U251 CNS was above 100 µM throughout.

On to `C[C@@]12CCCc3coc(c31)C(=O)c1cc3c(cc12)C(=O)C=CC3=O`, for which the total growth inhibition concentration (TGI) is above 100 µM in the assay with A498 renal; > 1 µM and 37.1 µM with IGROV1 ovarian; above 1 µM in the assay with NCI-H226 lung; > 1 µM and 36.4 µM in the assay on OVCAR-5 ovarian; > 1 µM and 29.1 µM in the assay with OVCAR-8 ovarian; > 1 µM and 30.1 µM with SF-539 CNS. For the same compound, the TGI in the assay on SK-OV-3 ovarian is above 100 µM; with SN12C renal, > 1 µM and 38.6 µM; with U251 CNS it was above 100 µM. Besides, the GI50 in the assay on IGROV1 ovarian is above 1 µM; in the assay with OVCAR-5 ovarian, above 1 µM; in the assay on OVCAR-8 ovarian, above 1 µM; with SF-539 CNS, below 1 µM; in the assay on SK-OV-3 ovarian it was above 100 µM; in the assay on SN12C renal, above 1 µM. In the assay on U251 CNS, the GI50 is above 1 µM.

On to `COc1cc2ccc3c4cc(OC)c(OC(C)C)cc4cnc3c2cc1OC`, for which the total growth inhibition concentration (TGI) in the assay on IGROV1 ovarian, with NCI-H226 lung, in the assay on OVCAR-5 ovarian, with OVCAR-8 ovarian, in the assay with SF-539 CNS and in the assay on SK-OV-3 ovarian was above 100 µM throughout. The total growth inhibition concentration (TGI) with SN12C renal and in the assay with U251 CNS was above 100 µM in each case.

`O=C1c2ccc3c4ccccc4n(Cc4ccccc4)c3c2C(=O)N1c1ccccc1`: the TGI with A498 renal came to 45.9 µM; in the assay with IGROV1 ovarian, 35.7 µM; in the assay with NCI-H226 lung, 29.7 µM; in the assay on OVCAR-5 ovarian, 33 µM; with OVCAR-8 ovarian, 31.9 µM; in the assay with SF-539 CNS, 31.1 µM. Also, the concentration for total growth inhibition (TGI) was above 55.6 µM with SK-OV-3 ovarian, 30.1 µM in the assay with SN12C renal and 29.3 µM in the assay on U251 CNS.

As to `O=C(Nc1cc(Cl)ccc1Cl)C(=O)C(c1cnc2ccccc2n1)[N+](=O)[O-]` (stereo not drawn), the concentration for total growth inhibition (TGI) in the assay on A498 renal, with IGROV1 ovarian, with NCI-H226 lung, in the assay on OVCAR-5 ovarian, with OVCAR-8 ovarian and with SF-539 CNS was above 100 µM in each case. Besides, the TGI with SK-OV-3 ovarian, with SN12C renal and with U251 CNS was above 100 µM each time.

Regarding `Cc1ccc(C2(O)CC(c3ccc([N+](=O)[O-])o3)=NN2C(=O)COc2ccc(Cl)cc2)cc1` (stereo not drawn), the total growth inhibition concentration (TGI) is 22.2 µM in the assay on A498 renal; above 76.4 µM with IGROV1 ovarian; 39.7 µM with NCI-H226 lung; above 94.9 µM in the assay with OVCAR-5 ovarian; 20.3 µM in the assay on OVCAR-8 ovarian; 15.4 µM with SF-539 CNS. The concentration for total growth inhibition (TGI) with SK-OV-3 ovarian was above 100 µM; with SN12C renal, 17.9 µM; with U251 CNS it was 9.09 µM.

As for `CCOC(=N)CC(=O)Nc1cccc(C)c1C`, the TGI in the assay on A498 renal, in the assay on IGROV1 ovarian, in the assay on NCI-H226 lung, in the assay with OVCAR-5 ovarian, in the assay with OVCAR-8 ovarian and with SF-539 CNS was above 100 µM in each case. In addition, the TGI with SK-OV-3 ovarian, in the assay on SN12C renal and with U251 CNS was above 100 µM each time.

Turning to `Nc1ccn(C2(CO)C=C(CO)C(O)C2O)c(=O)n1` (stereo not drawn), the TGI in the assay with A498 renal, in the assay on IGROV1 ovarian, in the assay on NCI-H226 lung, in the assay with OVCAR-8 ovarian, in the assay on SF-539 CNS and with SK-OV-3 ovarian was above 25.8 µM throughout. Besides, the total growth inhibition concentration (TGI) with SN12C renal and in the assay on U251 CNS was above 25.8 µM in each case.

As for `Cc1cc(NS(=O)(=O)c2ccc(Nc3c4ccccc4nc4c(C(=O)NCCN(C)C)cccc34)cc2)no1`, the concentration for total growth inhibition (TGI) was 22.1 µM in the assay with IGROV1 ovarian; 2.92 µM with NCI-H226 lung; above 100 µM in the assay on OVCAR-5 ovarian; above 100 µM with OVCAR-8 ovarian; 15.2 µM in the assay on SF-539 CNS; above 100 µM in the assay with SN12C renal. Moreover, the total growth inhibition concentration (TGI) in the assay with U251 CNS was above 100 µM.

With `C=CCNC(=O)N(CCC)CCCCC(NC(C)=O)C(=O)NCc1ccccc1` (stereo not drawn), the TGI in the assay with A498 renal, with IGROV1 ovarian, in the assay on NCI-H226 lung, with OVCAR-5 ovarian, in the assay on OVCAR-8 ovarian and with SF-539 CNS was above 100 µM throughout. The concentration for total growth inhibition (TGI) with SK-OV-3 ovarian, with SN12C renal and with U251 CNS was above 100 µM in each case.

As for `CN[C@@H](C)[C@H](NC)c1ccccc1`, the TGI in the assay on IGROV1 ovarian, in the assay on NCI-H226 lung, with OVCAR-8 ovarian, in the assay on SF-539 CNS, in the assay on SK-OV-3 ovarian and in the assay with SN12C renal was above 100 µM in each case. This compound also gave a concentration for total growth inhibition (TGI) in the assay on U251 CNS above 100 µM.

Take `COc1ccc(C2c3cc(OC)c(OC)cc3C(Cc3ccc([N+](=O)[O-])cc3)C2c2ccc([N+](=O)[O-])cc2)cc1OC` (stereo not drawn): the TGI in the assay on A498 renal, in the assay on IGROV1 ovarian, in the assay on NCI-H226 lung, in the assay with OVCAR-5 ovarian, with OVCAR-8 ovarian and with SF-539 CNS was above 100 µM in each case. Further, the TGI in the assay with SN12C renal and with U251 CNS was above 100 µM each time.

`COc1cc(C)c2c(c1C)OC(=O)c1c(C)c(Cl)c(O)c(C=O)c1O2`: the TGI with A498 renal is 33.2 µM; in the assay on IGROV1 ovarian, 72.7 µM; in the assay on NCI-H226 lung, 87.6 µM; with OVCAR-5 ovarian, 81.8 µM; in the assay on OVCAR-8 ovarian, 27.4 µM; in the assay with SF-539 CNS, 26.6 µM. Moreover, the concentration for total growth inhibition (TGI) in the assay on SK-OV-3 ovarian is 65 µM; with SN12C renal it was above 100 µM.

On to `COc1cc2cccc(N=Cc3cccc(OC)c3OC(C)C)c2cc1OC`, for which the total growth inhibition concentration (TGI) is above 100 µM in the assay with A498 renal; 70.2 µM in the assay on IGROV1 ovarian; above 100 µM in the assay on OVCAR-5 ovarian; 53.1 µM in the assay with OVCAR-8 ovarian; 73 µM in the assay with SK-OV-3 ovarian; above 100 µM in the assay on SN12C renal. The TGI in the assay on U251 CNS came out at 49.9 µM.
